Laboratory results taken from ChEMBL document CHEMBL5291721, “A preclinical secondary pharmacology resource illuminates target-adverse drug reaction associations of marketed drugs” (Nat Commun, 2023).

Columns and labels:
[1] = biological target: T1, D(4) dopamine receptor (Homo sapiens, UniProt P21917)
T1 sequence (P21917 whole entry): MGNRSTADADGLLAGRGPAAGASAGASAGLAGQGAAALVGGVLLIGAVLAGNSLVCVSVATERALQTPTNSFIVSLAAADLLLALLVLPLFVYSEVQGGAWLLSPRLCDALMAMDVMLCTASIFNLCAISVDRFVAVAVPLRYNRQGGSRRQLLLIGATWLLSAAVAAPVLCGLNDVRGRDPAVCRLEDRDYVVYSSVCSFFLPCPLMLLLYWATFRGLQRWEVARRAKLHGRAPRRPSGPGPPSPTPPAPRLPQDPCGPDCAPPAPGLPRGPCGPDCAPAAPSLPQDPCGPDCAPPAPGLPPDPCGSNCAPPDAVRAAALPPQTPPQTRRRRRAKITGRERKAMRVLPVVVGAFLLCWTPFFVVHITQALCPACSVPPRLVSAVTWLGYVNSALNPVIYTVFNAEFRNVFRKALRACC

[2] = biological target: Estrogen receptor beta (Homo sapiens, UniProt Q92731)
[3] = biological target: Gamma-aminobutyric acid type B receptor subunit 1 (Homo sapiens, UniProt Q9UBS5)
[4] = biological target: 5-hydroxytryptamine receptor 2B (Homo sapiens, UniProt P41595)
[5] = biological target: T2, Glucocorticoid receptor (Homo sapiens, UniProt P04150); assay type: functional
T2 sequence (P04150 whole entry): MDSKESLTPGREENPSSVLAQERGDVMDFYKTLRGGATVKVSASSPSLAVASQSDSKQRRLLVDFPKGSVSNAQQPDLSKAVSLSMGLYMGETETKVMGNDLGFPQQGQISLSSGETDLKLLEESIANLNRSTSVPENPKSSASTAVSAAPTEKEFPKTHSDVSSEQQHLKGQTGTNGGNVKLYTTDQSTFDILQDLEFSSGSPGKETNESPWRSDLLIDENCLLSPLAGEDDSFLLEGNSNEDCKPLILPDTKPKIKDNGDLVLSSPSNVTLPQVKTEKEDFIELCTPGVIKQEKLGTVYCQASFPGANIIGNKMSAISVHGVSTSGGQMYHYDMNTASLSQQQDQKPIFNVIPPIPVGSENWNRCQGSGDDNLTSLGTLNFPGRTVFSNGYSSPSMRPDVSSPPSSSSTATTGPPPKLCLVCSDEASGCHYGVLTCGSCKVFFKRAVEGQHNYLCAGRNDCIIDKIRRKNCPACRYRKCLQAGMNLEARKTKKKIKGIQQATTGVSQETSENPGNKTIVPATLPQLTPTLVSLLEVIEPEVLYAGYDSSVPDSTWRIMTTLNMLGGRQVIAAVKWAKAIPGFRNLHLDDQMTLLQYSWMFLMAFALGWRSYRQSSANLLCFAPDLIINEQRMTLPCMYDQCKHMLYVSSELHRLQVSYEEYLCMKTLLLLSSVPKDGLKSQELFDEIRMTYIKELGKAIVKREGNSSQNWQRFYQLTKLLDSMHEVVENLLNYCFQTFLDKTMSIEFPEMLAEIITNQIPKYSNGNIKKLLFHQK

[6] = biological target: T3, Alpha-2A adrenergic receptor (Homo sapiens, UniProt P08913)
T3 sequence (P08913 whole entry): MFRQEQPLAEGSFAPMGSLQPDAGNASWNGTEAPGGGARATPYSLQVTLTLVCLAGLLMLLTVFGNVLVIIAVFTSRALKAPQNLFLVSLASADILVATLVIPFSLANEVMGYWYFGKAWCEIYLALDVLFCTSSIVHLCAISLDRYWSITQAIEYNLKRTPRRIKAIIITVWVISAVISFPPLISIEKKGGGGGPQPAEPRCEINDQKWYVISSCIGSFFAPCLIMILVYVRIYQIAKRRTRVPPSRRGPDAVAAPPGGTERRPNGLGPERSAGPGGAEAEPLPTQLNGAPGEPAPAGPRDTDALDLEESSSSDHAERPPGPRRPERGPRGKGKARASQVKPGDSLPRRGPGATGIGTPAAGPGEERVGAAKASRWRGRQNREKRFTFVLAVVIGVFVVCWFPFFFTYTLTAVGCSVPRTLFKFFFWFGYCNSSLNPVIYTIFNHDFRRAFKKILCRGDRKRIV

[7] = biological target: T4, D(1A) dopamine receptor (Homo sapiens, UniProt P21728)
[8] = biological target: Receptor tyrosine-protein kinase erbB-2 (Homo sapiens, UniProt P04626); assay type: functional
[9] = biological target: Synaptic vesicular amine transporter (Rattus norvegicus, UniProt Q01827); assay type: functional
[10] = biological target: T5, Thromboxane A2 receptor (Homo sapiens, UniProt P21731); assay type: functional
T5 sequence (P21731 whole entry): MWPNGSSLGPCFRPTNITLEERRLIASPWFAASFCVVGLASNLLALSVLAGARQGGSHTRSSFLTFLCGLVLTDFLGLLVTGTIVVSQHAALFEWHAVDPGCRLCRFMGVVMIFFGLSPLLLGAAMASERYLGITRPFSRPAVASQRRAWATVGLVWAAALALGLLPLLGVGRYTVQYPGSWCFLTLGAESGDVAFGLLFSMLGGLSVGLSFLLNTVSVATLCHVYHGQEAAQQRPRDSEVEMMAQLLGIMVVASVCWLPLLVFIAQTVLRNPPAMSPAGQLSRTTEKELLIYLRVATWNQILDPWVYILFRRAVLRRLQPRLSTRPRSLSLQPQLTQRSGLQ

[11] = biological target: Vascular endothelial growth factor receptor 2 (Homo sapiens, UniProt P35968); assay type: functional
[12] = biological target: T5, Thromboxane A2 receptor; assay type: functional, cell-based
[13] = biological target: T4, D(1A) dopamine receptor; remark: listed apart in the source
[14] = biological target: Hydroxycarboxylic acid receptor 2 (Homo sapiens, UniProt Q8TDS4)
Note: assay procedure not described here.

Chain of Hydroxycarboxylic acid receptor 2 (Q8TDS4 whole entry): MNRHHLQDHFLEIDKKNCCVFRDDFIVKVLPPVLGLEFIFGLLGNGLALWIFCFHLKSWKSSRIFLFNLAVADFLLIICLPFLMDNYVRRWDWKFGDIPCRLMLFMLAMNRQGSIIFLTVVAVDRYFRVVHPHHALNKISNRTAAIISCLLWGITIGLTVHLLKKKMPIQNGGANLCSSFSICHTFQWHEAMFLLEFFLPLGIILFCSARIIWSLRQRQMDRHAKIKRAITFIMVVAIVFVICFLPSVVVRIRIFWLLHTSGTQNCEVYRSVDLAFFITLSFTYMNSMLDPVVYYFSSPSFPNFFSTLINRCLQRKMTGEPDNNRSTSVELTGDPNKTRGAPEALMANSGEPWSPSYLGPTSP
Chain of Vascular endothelial growth factor receptor 2 (P35968 whole entry): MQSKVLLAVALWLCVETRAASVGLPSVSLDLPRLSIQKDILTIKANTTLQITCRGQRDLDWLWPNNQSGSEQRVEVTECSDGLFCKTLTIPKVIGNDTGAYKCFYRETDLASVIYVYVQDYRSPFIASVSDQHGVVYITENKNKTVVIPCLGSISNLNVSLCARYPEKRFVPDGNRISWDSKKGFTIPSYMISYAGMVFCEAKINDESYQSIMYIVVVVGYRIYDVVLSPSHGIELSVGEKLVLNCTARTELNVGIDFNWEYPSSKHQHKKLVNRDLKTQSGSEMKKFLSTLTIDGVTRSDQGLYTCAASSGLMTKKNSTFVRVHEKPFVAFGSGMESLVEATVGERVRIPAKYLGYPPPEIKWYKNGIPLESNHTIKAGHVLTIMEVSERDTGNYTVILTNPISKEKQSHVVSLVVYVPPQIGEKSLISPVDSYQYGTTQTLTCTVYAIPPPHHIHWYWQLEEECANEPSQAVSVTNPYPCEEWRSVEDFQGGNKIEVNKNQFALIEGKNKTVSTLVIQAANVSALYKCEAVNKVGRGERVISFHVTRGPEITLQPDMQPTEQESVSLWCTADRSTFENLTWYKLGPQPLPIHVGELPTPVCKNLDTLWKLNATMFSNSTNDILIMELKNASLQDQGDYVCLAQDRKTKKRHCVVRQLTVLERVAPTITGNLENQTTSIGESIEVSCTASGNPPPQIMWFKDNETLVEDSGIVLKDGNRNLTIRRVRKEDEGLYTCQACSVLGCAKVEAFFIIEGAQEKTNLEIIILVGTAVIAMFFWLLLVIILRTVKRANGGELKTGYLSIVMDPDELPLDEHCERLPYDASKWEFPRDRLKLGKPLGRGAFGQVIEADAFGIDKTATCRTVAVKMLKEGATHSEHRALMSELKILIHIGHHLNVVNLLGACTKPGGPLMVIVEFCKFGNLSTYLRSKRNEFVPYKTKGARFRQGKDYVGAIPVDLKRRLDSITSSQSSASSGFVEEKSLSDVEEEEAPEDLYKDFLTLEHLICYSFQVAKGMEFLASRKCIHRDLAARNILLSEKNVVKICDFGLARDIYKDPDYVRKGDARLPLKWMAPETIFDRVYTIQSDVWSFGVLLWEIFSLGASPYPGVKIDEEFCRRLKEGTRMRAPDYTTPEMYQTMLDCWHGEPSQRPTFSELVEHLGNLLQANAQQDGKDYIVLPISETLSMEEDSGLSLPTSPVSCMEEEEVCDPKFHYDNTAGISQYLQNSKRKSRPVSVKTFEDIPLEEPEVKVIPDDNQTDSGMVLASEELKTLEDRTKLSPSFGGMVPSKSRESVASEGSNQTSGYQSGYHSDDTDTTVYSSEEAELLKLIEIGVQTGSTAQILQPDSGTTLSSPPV
Chain of 5-hydroxytryptamine receptor 2B (P41595 whole entry): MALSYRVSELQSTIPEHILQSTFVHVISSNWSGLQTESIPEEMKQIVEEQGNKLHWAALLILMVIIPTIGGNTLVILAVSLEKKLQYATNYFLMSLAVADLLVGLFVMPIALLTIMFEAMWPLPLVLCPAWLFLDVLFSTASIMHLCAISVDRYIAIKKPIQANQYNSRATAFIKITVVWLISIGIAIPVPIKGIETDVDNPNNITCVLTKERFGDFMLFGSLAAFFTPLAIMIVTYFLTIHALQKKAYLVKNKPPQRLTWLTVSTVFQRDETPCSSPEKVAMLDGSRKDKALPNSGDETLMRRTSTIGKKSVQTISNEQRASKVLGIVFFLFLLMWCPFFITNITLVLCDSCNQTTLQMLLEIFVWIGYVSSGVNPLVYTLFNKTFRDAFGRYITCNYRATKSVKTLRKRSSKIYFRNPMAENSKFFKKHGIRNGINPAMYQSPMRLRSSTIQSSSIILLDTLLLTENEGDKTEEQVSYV
Chain of Synaptic vesicular amine transporter (Q01827 whole entry): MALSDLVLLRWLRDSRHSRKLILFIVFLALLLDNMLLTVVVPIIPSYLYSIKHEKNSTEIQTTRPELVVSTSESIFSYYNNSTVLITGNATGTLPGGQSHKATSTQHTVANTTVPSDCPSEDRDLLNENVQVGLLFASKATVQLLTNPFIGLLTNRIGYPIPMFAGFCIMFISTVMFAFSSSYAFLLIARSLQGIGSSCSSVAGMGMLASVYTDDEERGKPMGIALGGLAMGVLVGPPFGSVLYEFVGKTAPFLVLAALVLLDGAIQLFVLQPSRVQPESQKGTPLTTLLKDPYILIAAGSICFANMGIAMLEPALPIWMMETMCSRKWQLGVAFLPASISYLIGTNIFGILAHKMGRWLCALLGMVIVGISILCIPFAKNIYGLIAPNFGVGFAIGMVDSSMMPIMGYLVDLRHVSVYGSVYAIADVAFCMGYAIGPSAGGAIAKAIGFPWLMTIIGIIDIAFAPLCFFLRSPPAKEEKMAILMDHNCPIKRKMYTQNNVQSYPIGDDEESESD
Chain of Estrogen receptor beta (Q92731 whole entry): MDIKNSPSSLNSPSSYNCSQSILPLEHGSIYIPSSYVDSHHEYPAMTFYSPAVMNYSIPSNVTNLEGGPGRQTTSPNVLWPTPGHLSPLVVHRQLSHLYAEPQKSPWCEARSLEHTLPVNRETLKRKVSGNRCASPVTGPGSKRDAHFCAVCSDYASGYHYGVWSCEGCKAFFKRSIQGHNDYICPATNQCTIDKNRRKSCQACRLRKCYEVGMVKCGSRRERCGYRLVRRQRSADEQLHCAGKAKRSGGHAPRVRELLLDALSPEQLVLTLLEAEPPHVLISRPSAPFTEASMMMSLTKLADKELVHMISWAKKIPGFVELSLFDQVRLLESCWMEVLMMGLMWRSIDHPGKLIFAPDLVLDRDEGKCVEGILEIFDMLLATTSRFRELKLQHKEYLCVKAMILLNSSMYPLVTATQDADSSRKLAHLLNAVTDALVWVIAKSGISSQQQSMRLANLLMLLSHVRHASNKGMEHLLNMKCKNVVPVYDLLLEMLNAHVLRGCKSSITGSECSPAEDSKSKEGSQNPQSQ
T4 sequence (P21728 whole entry): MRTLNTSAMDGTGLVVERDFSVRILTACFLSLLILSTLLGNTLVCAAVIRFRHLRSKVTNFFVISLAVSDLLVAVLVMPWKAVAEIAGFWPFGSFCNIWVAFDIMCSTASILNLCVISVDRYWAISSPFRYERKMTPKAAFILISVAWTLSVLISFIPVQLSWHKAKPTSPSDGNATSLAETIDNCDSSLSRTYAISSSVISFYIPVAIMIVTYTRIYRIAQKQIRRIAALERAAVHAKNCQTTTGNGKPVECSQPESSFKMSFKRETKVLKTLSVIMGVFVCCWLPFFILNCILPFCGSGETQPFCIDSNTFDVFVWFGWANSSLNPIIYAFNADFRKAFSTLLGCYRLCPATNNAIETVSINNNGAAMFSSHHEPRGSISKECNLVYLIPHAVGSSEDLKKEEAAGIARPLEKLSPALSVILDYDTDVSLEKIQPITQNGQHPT
Chain of Gamma-aminobutyric acid type B receptor subunit 1 (Q9UBS5 whole entry): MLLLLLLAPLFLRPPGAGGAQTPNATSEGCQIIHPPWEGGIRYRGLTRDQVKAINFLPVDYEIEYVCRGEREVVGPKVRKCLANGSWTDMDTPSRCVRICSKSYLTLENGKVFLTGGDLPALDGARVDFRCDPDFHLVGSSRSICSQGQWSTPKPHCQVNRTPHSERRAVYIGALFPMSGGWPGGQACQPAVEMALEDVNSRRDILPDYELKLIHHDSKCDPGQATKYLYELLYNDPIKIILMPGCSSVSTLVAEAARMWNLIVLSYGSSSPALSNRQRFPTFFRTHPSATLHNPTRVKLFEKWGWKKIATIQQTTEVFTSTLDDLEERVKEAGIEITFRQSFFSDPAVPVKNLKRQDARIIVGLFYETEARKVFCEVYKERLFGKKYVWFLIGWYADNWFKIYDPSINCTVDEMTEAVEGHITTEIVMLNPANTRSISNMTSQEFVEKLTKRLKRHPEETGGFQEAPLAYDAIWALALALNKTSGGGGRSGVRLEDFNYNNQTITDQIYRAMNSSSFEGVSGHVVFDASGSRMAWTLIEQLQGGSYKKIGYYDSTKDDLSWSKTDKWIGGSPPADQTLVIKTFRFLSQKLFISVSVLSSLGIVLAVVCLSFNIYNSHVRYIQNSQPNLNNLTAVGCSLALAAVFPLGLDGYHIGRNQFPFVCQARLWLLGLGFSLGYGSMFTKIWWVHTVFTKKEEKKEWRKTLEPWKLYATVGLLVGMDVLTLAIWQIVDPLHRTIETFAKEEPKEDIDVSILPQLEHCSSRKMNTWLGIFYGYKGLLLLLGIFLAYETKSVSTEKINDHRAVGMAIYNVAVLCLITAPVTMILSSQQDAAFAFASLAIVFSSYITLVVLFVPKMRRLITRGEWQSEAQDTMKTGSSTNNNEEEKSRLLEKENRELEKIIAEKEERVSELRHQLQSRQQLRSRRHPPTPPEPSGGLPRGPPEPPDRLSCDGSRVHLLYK

Row | Structure (SMILES) | AC50 [1] [µM] | AC50 [2] [µM] | AC50 [4] [µM] | AC50 [5] [µM] | AC50 [6] [µM] | AC50 [7] [µM] | also measured
1 | CCOc1nc2cccc(C(=O)O)c2n1Cc1ccc(-c2ccccc2-c2nnn[nH]2)cc1 | > 10 | > 30 | > 10 | > 30 | > 10 | > 10 | AC50 [3]: > 10 µM
2 | CCCc1nc2c(C)cc(-c3nc4ccccc4n3C)cc2n1Cc1ccc(-c2ccccc2C(=O)O)cc1 | > 10 | > 30 | > 10 | > 30 | > 30 | > 10 | AC50 [3]: > 10 µM
3 | CCOc1cc([C@@H](CS(C)(=O)=O)N2C(=O)c3cccc(NC(C)=O)c3C2=O)ccc1OC | – | – | – | > 30 | – | – | AC50 [8]: > 30 µM; AC50 [9]: > 30 µM; AC50 [10]: > 30 µM; AC50 [11]: > 30 µM; AC50 [12]: > 30 µM
4 | O=C(O)c1ccccc1 [BENZOIC ACID] | – | – | – | – | – | – | AC50 [9]: 18 µM
5 | Nc1c(CC(=O)O)cccc1C(=O)c1ccc(Br)cc1 [BROMFENAC] | – | – | – | – | – | – | AC50 [13]: > 30 µM
6 | Cc1nnc(SCC2=C(C(=O)O)N3C(=O)[C@@H](NC(=O)Cn4cnnn4)[C@H]3SC2)s1 [CEFAZOLIN] | – | – | – | – | – | – | AC50 [8]: > 300 µM; AC50 [10]: > 300 µM; AC50 [11]: > 300 µM; AC50 [12]: > 300 µM
7 | CC(C)(O/N=C(\C(=O)N[C@@H]1C(=O)N2C(C(=O)[O-])=C(C[n+]3ccccc3)CS[C@H]12)c1csc(N)n1)C(=O)O [CEFTAZIDIME] | – | – | – | > 300 | – | – | AC50 [8]: > 300 µM; AC50 [10]: > 300 µM; AC50 [11]: > 300 µM; AC50 [12]: > 300 µM
8 | CC(C)NC(=N)NC(=N)Nc1ccc(Cl)c(Cl)c1 [CHLORPROGUANIL] | – | – | – | – | – | – | AC50 [13]: > 30 µM
9 | CCCNC(=O)NS(=O)(=O)c1ccc(Cl)cc1 [CHLORPROPAMIDE] | – | > 30 | – | – | – | – | –
10 | Clc1ccc(Cn2c(CN3CCCC3)nc3ccccc32)cc1 [CLEMIZOLE] | – | – | – | > 30 | – | – | AC50 [8]: > 30 µM; AC50 [10]: > 10 µM; AC50 [11]: > 30 µM; AC50 [12]: > 10 µM
11 | Cc1nc(Nc2ncc(C(=O)Nc3c(C)cccc3Cl)s2)cc(N2CCN(CCO)CC2)n1 [DASATINIB] | > 10 | – | 7.6 | – | > 10 | > 10 | AC50 [3]: > 10 µM
12 | CC(C)Cc1ccc([C@H](C)C(=O)O)cc1 [DEXIBUPROFEN] | – | – | – | > 30 | – | – | –
13 | O=C(O)Cc1ccccc1Nc1c(Cl)cccc1Cl [DICLOFENAC] | > 10 | > 30 | > 10 | – | > 10 | > 10 | AC50 [3]: > 10 µM
14 | CN[C@@H]1[C@H](O[C@H]2[C@H](O[C@H]3[C@H](O)[C@@H](O)[C@H](NC(=N)N)[C@@H](O)[C@@H]3NC(=N)N)O[C@@H](C)[C@]2(O)CO)O[C@@H](CO)[C@H](O)[C@H]1O [DIHYDROSTREPTOMYCIN] | – | – | – | – | – | – | AC50 [13]: > 30 µM
15 | O=C(O)Cc1ccccc1Oc1ccc(Cl)cc1Cl [FENCLOFENAC] | > 10 | – | > 10 | – | > 10 | > 10 | AC50 [14]: > 10 µM
16 | Cc1onc(-c2c(F)cccc2Cl)c1C(=O)N[C@@H]1C(=O)N2[C@@H]1SC(C)(C)[C@@H]2C(=O)O [FLOXACILLIN] | – | – | – | > 30 | – | – | AC50 [8]: > 30 µM; AC50 [10]: > 30 µM; AC50 [11]: > 30 µM; AC50 [12]: > 30 µM

Row | Structure (SMILES) | AC50 [1] [µM] | AC50 [2] [µM] | AC50 [4] [µM] | AC50 [5] [µM] | AC50 [6] [µM] | AC50 [7] [µM] | also measured
17 | Cc1ccc(C)c(OCCCC(C)(C)C(=O)O)c1 [GEMFIBROZIL] | > 10 | > 30 | > 10 | – | > 10 | > 10 | AC50 [3]: > 10 µM; AC50 [14]: > 10 µM
18 | C#C[C@]1(O)C=C[C@H]2[C@@H]3CCC4=CC(=O)CC[C@@H]4[C@H]3CC[C@@]21CC [GESTODENE] | – | – | – | – | – | – | AC50 [13]: > 30 µM
19 | COc1cc(C(C)=O)ccc1OCCCN1CCC(c2noc3cc(F)ccc23)CC1 [ILOPERIDONE] | 0.0209 | – | – | > 30 | 0.176 | 0.0684 | –
20 | CC[C@H](C)C(=O)O[C@H]1C[C@@H](C)C=C2C=C[C@H](C)[C@H](CC[C@@H]3C[C@@H](O)CC(=O)O3)[C@H]21 [LOVASTATIN] | > 10 | > 30 | > 10 | – | > 10 | > 10 | AC50 [14]: > 10 µM
21 | CC[C@@H](CO)NC(=O)[C@@H]1C=C2c3cccc4c3c(cn4C)C[C@H]2N(C)C1 [METHYSERGIDE] | – | 24.5 | – | – | 2.42 | – | –
22 | CN1Cc2c(N)cccc2C(c2ccccc2)C1 (stereo not drawn) [NOMIFENSINE] | – | – | – | – | – | – | AC50 [9]: 28.8 µM
23 | C=CC(=O)Nc1cccc(Oc2nc(Nc3ccc(N4CCN(C)CC4)cc3)nc3ccsc23)c1 [OLMUTINIB] | – | – | – | – | – | – | AC50 [9]: 0.44 µM
24 | CC(CN1c2ccccc2Sc2ccccc21)N(C)C (stereo not drawn) [PROMETHAZINE] | – | > 30 | 0.0679 | – | – | 3.38 | AC50 [13]: > 30 µM; AC50 [14]: > 10 µM
25 | CN(CCOc1ccc(CC2SC(=O)NC2=O)cc1)c1ccccn1 (stereo not drawn) [ROSIGLITAZONE] | > 10 | > 30 | > 10 | – | > 30 | > 10 | AC50 [3]: > 10 µM
26 | S=P(N1CC1)(N1CC1)N1CC1 [THIOTEPA] | – | – | – | > 30 | – | – | AC50 [8]: > 30 µM; AC50 [10]: > 10 µM; AC50 [11]: > 30 µM; AC50 [12]: > 30 µM
27 | Cc1ccccc1C(=O)Nc1ccc(C(=O)N2CCCC(O)c3cc(Cl)ccc32)c(C)c1 (stereo not drawn) [TOLVAPTAN] | – | – | – | – | – | – | AC50 [9]: > 30 µM
28 | C[C@]12C=CC(=O)C=C1CC[C@H]1[C@@H]3C[C@@H](O)[C@](O)(C(=O)CO)[C@@]3(C)C[C@H](O)[C@@]12F [TRIAMCINOLONE] | – | – | – | > 30 | – | – | –
29 | CC(C)C[C@H](NC(=O)[C@@H](O)[C@H](N)Cc1ccccc1)C(=O)O [UBENIMEX] | – | – | – | – | – | – | AC50 [13]: > 30 µM
30 | CC(C)[C@H](N)C(=O)OCCOCn1cnc2c(=O)[nH]c(N)nc21 [VALACYCLOVIR] | > 10 | > 30 | > 10 | – | > 10 | > 10 | AC50 [14]: > 10 µM
31 | COc1cc(C(=O)NS(=O)(=O)c2ccccc2C)ccc1Cc1cn(C)c2ccc(NC(=O)OC3CCCC3)cc12 [ZAFIRLUKAST] | – | – | – | > 30 | – | – | –
32 | O=C1Cc2cc(CCN3CCN(c4nsc5ccccc45)CC3)c(Cl)cc2N1 [ZIPRASIDONE] | – | > 30 | 0.0137 | – | – | – | AC50 [14]: > 10 µM; AC50 [9]: 0.0035 µM
